Experimental data from ChEMBL document CHEMBL2203036, “Discovery of 1-[2-(2,4-dimethylphenylsulfanyl)phenyl]piperazine (Lu AA21004): a novel multimodal compound for the treatment of major depressive disorder” (J Med Chem, 2011).
The source made the active and inactive calls. The rule behind the calls is not given here.

Key:
[1] = system: Rattus norvegicus; experiment: Target occupancy at SERT in Harlan rat at 10 mg/kg, sc administered QD for 3 days relative to vehicle-treated control; assay type: functional; details: route subcutaneous
[2] = molecular target: 5-hydroxytryptamine receptor 5A (Homo sapiens, UniProt P47898); experiment: Binding affinity to human 5HT5A receptor
[3] = molecular target: Beta-1 adrenergic receptor (Homo sapiens, UniProt P08588); experiment: Binding affinity to human beta 1 adrenergic receptor
[4] = molecular target: Histamine H2 receptor (Homo sapiens, UniProt P25021); experiment: Binding affinity to human histamine H2 receptor
[5] = molecular target: T1, 5-hydroxytryptamine receptor 3A (Homo sapiens, UniProt P46098); experiment: Antagonist activity at human 5HT3A receptor expressed in xenopus oocytes assessed as inhibition of 5HT-induced effect by electrophysiological method; assay type: functional, cell-based, Oocyte
T1 sequence (P46098 whole entry): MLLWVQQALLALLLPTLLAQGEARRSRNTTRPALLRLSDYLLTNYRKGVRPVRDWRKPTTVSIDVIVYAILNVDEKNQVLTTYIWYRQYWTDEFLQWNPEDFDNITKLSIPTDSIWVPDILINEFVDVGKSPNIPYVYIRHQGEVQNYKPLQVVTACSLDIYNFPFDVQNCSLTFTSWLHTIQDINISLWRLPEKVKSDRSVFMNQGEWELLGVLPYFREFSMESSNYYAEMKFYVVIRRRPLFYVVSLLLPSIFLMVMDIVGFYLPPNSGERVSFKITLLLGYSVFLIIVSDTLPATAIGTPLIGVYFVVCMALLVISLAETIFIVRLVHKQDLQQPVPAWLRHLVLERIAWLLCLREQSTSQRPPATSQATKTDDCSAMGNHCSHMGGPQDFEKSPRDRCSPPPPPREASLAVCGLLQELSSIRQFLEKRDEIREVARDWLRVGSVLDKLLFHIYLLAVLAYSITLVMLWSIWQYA

[6] = Oral bioavailability in rat at 2 mg/kg; assay type: ADME, organism-based; details: in vivo
[7] = system: Rattus norvegicus; experiment: Hepatic clearance in rat at 1 mg/kg, iv; assay type: ADME, organism-based, Liver; parameters: dose 1 mg/kg, route intravenous; details: in vivo
[8] = molecular target: Cytochrome P450 3A4 (Homo sapiens, UniProt P08684); experiment: Inhibition of human recombinant CYP3A4 using resorufin benzyl ether after 30 mins by fluorescence spectrophotometric analysis; assay type: ADME
[9] = molecular target: Cytochrome P450 2C9 (Homo sapiens, UniProt P11712); experiment: Inhibition of human recombinant CYP2C9 using dibenzylfluorescein after 45 mins by fluorescence spectrophotometric analysis; assay type: ADME
[10] = molecular target: T2, Cytochrome P450 1A2 (Homo sapiens, UniProt P05177); experiment: Inhibition of human recombinant CYP1A2 using 7-ethoxy-3-cyanocoumarin after 28 mins by fluorescence spectrophotometric analysis; assay type: ADME
T2 sequence (P05177 whole entry): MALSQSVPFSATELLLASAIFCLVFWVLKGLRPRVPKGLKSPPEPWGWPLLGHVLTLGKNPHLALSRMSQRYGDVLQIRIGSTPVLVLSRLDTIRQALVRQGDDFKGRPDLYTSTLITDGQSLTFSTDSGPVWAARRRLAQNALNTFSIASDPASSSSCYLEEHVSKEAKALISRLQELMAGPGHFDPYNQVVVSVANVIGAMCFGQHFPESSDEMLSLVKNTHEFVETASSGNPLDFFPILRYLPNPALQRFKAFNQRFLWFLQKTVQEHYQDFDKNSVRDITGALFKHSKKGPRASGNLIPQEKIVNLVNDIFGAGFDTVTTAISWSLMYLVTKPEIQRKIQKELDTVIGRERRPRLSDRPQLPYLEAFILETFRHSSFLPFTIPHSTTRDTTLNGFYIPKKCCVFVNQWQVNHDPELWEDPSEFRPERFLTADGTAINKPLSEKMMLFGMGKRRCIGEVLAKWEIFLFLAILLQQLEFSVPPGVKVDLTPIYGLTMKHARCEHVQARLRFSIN

[11] = system: Liver microsomes; experiment: Intrinsic clearance in rat liver microsomes at 1 uM after 60 mins by LC-MS/MS analysis; assay type: ADME, Microsome; details: 1 h
[12] = system: Liver microsomes; experiment: Intrinsic clearance in human liver microsomes at 1 uM after 60 mins by LC-MS/MS analysis; assay type: ADME, Microsome; details: 1 h
[13] = Inhibition of NET-mediated [3H]NE in rat synaptosomes by scintillation counting; assay type: subcellular, Brain
[14] = molecular target: Sodium-dependent dopamine transporter (Rattus norvegicus, UniProt P23977); experiment: Inhibition of DAT-mediated [3H]DA in rat synaptosomes by scintillation counting; assay type: subcellular, Brain
[15] = molecular target: T1, 5-hydroxytryptamine receptor 3A; experiment: Binding affinity to human 5HT3A receptor
[16] = molecular target: T3, 5-hydroxytryptamine receptor 1B (Homo sapiens, UniProt P28222); experiment: Binding affinity at human 5HT1B receptor
[17] = molecular target: T3, 5-hydroxytryptamine receptor 1B; experiment: Partial agonist activity at human 5HT1B receptor expressed in CHO cells assessed as [35S]GTPgammaS binding; assay type: functional, cell-based
[18] = molecular target: Sodium-dependent noradrenaline transporter (Homo sapiens) (UniProt P23975); experiment: Inhibition of human NET at 1 uM
[19] = molecular target: Melanocortin receptor 4 (Homo sapiens) (UniProt P32245); experiment: Inhibition of human MC4 receptor at 1 uM
[20] = molecular target: T4, 5-hydroxytryptamine receptor 3A (Homo sapiens) (UniProt P46098); experiment: Inhibition of human 5HT3A receptor at 1 uM
T4 sequence (whole entry): T1 sequence (P46098 whole entry)

[21] = molecular target: T3, 5-hydroxytryptamine receptor 1B; experiment: Inhibition of human 5HT1B receptor at 1 uM
[22] = molecular target: 5-hydroxytryptamine receptor 3A (Rattus norvegicus) (UniProt P35563); experiment: Agonist activity at rat 5HT3A receptor expressed in xenopus oocytes at 0.1 to 100000 nM by electrophysiological method; details: Oocyte
[23] = molecular target: T3, 5-hydroxytryptamine receptor 1B; experiment: Partial agonist activity at human 5HT1B receptor expressed in CHO cells assessed as [35S]GTPgammaS binding relative to 5HT
[24] = molecular target: T4, 5-hydroxytryptamine receptor 3A (Homo sapiens); experiment: Agonist activity at human 5HT3A receptor expressed in xenopus oocytes by electrophysiological method in presence of ondansetron; details: Oocyte
[25] = system: Rattus norvegicus; experiment: Antidepression activity in Harlan rat assessed as increase in extracellular 5HT level in ventral hippocampus region at 2.5 to 10 mg/kg, sc by microdialysis method; details: TDE = time-dependent effect
[26] = system: Rattus norvegicus; experiment: Antidepression activity in sc dosed Harlan rat assessed as increase in extracellular 5HT level in ventral hippocampus region measured up to 180 mins by microdialysis method
[27] = system: Rattus norvegicus; experiment: Antidepression activity in Harlan rat assessed as increase in extracellular 5HT level in ventral hippocampus region at 2.5 mg/kg, sc measured from 60 to 120 mins by microdialysis method
[28] = system: Rattus norvegicus; experiment: Antidepression activity in Harlan rat assessed as increase in extracellular 5HT level in ventral hippocampus region at 5 to 10 mg/kg, sc measured from 40 to 180 mins by microdialysis method

T3 sequence (P28222 whole entry): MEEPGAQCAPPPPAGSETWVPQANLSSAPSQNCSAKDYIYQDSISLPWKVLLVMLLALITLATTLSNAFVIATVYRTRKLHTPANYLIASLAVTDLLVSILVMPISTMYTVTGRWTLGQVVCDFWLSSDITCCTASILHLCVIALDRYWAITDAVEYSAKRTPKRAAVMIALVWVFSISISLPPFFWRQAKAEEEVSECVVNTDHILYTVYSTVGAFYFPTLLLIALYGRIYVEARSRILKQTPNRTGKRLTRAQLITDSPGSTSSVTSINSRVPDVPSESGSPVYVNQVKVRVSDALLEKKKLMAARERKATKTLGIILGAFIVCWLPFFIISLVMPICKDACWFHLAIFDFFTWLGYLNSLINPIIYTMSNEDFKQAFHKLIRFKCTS
Melanocortin receptor 4 (Homo sapiens), sequence (P32245 whole entry): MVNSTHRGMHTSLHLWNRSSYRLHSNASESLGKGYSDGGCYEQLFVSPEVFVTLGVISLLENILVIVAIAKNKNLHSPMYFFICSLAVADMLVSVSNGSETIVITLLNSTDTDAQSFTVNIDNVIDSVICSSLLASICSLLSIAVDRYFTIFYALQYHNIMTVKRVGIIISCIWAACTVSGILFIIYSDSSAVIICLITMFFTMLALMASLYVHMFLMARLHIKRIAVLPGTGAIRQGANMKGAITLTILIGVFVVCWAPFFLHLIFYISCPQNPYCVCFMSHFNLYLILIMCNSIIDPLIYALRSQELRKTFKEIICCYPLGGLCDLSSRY
Cytochrome P450 2C9, sequence (P11712 whole entry): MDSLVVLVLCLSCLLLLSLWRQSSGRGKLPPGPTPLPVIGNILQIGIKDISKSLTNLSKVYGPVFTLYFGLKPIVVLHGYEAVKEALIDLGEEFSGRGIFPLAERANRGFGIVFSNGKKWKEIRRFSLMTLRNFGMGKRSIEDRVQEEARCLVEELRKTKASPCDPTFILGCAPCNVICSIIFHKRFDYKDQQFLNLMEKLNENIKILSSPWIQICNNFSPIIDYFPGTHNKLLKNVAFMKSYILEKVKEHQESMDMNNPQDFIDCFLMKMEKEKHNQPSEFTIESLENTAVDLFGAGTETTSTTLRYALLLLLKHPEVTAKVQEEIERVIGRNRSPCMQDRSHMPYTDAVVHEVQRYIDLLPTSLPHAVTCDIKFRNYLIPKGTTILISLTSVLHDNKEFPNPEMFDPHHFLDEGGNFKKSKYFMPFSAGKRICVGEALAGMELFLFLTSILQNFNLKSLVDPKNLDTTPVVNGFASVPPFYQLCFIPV
Sodium-dependent dopamine transporter, sequence (P23977 whole entry): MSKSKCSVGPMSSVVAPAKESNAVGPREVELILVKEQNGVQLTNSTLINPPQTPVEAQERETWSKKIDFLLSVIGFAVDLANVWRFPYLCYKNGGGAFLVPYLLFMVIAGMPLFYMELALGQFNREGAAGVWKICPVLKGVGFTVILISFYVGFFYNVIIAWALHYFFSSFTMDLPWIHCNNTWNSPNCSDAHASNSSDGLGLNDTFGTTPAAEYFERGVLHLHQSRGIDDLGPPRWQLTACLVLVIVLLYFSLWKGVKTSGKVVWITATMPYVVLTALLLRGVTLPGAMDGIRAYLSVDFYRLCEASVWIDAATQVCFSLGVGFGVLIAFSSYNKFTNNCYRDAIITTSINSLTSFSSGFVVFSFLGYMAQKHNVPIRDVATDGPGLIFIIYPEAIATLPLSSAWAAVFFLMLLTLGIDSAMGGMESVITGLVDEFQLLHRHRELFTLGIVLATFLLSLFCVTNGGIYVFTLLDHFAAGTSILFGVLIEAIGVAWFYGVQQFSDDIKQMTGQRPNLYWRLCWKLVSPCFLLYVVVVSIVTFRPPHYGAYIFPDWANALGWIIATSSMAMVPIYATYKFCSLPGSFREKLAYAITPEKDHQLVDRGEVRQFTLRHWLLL
Sodium-dependent noradrenaline transporter (Homo sapiens), sequence (P23975 whole entry): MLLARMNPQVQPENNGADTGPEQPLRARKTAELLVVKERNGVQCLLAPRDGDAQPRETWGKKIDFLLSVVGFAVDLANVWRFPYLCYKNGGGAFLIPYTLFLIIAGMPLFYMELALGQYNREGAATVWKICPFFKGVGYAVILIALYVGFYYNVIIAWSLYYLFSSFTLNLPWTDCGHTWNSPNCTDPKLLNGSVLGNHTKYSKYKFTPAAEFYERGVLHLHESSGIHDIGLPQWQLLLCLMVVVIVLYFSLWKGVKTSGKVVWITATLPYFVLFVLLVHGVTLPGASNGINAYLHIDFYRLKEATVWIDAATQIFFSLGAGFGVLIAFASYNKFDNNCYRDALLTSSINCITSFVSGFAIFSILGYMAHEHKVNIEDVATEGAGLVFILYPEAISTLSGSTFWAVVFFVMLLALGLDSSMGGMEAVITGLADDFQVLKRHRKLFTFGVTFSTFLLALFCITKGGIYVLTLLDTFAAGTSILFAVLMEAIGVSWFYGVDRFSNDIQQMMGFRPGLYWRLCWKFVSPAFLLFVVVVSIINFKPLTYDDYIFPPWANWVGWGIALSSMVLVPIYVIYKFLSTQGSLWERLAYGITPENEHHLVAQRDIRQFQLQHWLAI
Histamine H2 receptor, sequence (P25021 whole entry): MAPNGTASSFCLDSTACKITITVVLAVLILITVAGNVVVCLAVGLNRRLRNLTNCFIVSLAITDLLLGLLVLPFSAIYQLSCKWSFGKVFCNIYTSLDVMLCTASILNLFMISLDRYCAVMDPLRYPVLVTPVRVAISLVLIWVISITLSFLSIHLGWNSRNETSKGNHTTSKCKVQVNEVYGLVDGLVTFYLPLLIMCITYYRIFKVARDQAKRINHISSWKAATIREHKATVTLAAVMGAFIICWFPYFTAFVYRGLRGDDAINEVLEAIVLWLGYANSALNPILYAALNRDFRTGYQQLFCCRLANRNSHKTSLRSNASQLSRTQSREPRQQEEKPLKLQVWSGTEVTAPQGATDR
5-hydroxytryptamine receptor 3A (Rattus norvegicus), sequence (P35563 whole entry): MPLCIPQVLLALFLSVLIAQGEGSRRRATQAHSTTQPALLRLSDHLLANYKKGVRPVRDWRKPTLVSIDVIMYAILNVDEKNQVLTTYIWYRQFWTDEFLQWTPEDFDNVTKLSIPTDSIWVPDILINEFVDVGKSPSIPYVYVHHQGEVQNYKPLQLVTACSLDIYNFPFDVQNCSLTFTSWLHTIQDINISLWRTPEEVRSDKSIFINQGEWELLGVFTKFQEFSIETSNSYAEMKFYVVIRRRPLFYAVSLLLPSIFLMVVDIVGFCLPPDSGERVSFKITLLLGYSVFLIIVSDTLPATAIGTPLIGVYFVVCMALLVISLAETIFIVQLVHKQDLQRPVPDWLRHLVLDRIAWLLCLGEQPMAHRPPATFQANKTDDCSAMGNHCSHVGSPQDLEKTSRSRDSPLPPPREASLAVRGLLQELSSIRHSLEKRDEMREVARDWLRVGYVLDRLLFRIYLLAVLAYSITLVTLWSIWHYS
Cytochrome P450 3A4, sequence (P08684 whole entry): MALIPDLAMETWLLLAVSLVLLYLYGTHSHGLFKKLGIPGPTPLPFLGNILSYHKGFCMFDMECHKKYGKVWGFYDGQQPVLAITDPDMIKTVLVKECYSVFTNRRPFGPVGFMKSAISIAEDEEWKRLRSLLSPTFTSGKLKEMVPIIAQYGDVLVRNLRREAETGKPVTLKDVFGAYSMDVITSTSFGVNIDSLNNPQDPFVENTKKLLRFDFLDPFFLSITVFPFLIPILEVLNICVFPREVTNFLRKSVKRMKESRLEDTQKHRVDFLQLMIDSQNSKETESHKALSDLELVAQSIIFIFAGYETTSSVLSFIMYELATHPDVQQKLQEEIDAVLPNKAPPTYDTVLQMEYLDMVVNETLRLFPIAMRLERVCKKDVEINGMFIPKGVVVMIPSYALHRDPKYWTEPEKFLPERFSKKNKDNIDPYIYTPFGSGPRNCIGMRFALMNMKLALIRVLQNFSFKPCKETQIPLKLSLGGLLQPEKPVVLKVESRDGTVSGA
5-hydroxytryptamine receptor 5A, sequence (P47898 whole entry): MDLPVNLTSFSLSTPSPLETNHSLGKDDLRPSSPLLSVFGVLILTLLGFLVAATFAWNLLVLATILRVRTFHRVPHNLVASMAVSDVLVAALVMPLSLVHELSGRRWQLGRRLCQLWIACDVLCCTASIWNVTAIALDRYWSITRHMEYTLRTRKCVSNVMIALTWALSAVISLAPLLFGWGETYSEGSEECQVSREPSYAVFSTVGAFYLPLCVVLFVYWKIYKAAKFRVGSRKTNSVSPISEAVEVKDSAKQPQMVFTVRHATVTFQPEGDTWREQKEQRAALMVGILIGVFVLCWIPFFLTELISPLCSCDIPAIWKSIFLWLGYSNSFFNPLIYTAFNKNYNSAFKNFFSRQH
Beta-1 adrenergic receptor, sequence (P08588 whole entry): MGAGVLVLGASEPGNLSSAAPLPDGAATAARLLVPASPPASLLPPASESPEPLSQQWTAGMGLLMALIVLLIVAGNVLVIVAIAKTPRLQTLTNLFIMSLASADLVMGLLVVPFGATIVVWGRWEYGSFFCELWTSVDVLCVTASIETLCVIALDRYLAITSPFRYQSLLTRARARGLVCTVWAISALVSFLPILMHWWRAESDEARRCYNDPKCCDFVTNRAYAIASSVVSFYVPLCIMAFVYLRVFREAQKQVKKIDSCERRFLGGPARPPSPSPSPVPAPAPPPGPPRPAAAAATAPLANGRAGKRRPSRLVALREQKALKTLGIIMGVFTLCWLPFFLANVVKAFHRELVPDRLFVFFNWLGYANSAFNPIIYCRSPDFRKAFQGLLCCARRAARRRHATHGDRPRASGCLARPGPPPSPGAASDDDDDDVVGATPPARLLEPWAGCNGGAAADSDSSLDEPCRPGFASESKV

In the case of `Cc1ccc(Sc2ccccc2N2CCNCC2)c(C)c1.Cl`, the Occ [1] is reported as 57%, the Ki [2] is reported as 220 nM and the Ki [3] is reported as 46 nM. The Ki [4] was 180 nM, the IC50 [5] was 12 nM and the bioavailability [6] was 16%. It also gave a CLH [7] of 118 mL/min/kg, an IC50 [8] of 10000 nM and an IC50 [9] of 39000 nM. The IC50 [10] was 40000 nM, the CLH [11] was 55 mL/min and the CLH [12] was 0.5 L/min. It also gave an IC50 [13] of 140 nM, an IC50 [14] of 890 nM and a Ki [15] of 3.7 nM. It also gave a Ki [16] of 33 nM, an EC50 [17] of 120 nM and an inhibition [18] of 88%. The inhibition [19] was 51%, the inhibition [20] was 100% and the inhibition [21] was 100%. For the same molecule, the Activity [22] was “inactive”, the Efficacy [23] was 55% and the Activity [24] was “inactive”. For the same molecule, the Activity [25] was “tde”, the Activity [26] was “Dose-dependent effect” and the Activity [27] was “Active”. For the same molecule, the Activity [28] was “Active”.
